Test results published in ChEMBL document CHEMBL2331446, “Discovery of a potential anti-inflammatory agent: 3-oxo-29-noroleana-1,9(11),12-trien-2,20-dicarbonitrile” (J Med Chem, 2013).
Calls of active or inactive are those of the source. No cut-off for these calls is given here.

Experiments:
RAW264.7 [1] = assay: Cytotoxicity against mouse RAW264.7 cells at 80 uM after 24 hrs by MTT assay; type: cell-based; settings: raw264.7, 24 h
RAW264.7 [2] = assay: Cytotoxicity against mouse LPS-challenged RAW264.7 cells at 80 uM after 24 hrs by MTT assay; type: cell-based; settings: raw264.7, 24 h
RAW264.7 [3] = assay: Antiinflammatory activity in mouse RAW264.7 cells assessed as inhibition of LPS-induced NO production incubated for 2 hrs prior to LPS-challenge measured after 24 hrs by Griess method; type: functional, cell-based
RAW264.7 [4] = assay: Antiinflammatory activity in mouse RAW264.7 cells assessed as inhibition of LPS-induced NO production at 50 uM incubated for 2 hrs prior to LPS-challenge measured after 24 hrs by Griess method; type: functional
Mus musculus [5] = assay: Antiinflammatory activity in ICR mouse assessed as protection against LPS-induced sepsis at 50 mg/kg, ip administered for 5 days prior to LPS-challenge measured after 2 hrs; type: functional, organism-based; design: dose 50 mg/kg
RAW264.7 [6] = assay: Inhibition of ERK phosphorylation in mouse LPS-induced RAW264.7 cells at 75 uM incubated for 2 hrs prior to LPS-challenge measured after 30 mins by Western blot analysis; type: cell-based
RAW264.7 [7] = assay: Inhibition of JNK phosphorylation in mouse LPS-induced RAW264.7 cells at 75 uM incubated for 2 hrs prior to LPS-challenge measured after 30 mins by Western blot analysis; type: cell-based
[8] = molecular target: MAP kinase p38 (Mus musculus) (UniProt P47811+O08911+Q9WUI1+Q9Z1B7); assay: Inhibition of MAPK p38 in mouse LPS-induced RAW264.7 cells at 75 uM incubated for 2 hrs prior to LPS-challenge measured after 30 mins by Western blot analysis; type: cell-based
[9] = molecular target: T1, NF-kappa-B inhibitor alpha (Mus musculus) (UniProt Q9Z1E3); assay: Inhibition of IkappaBalpha in mouse RAW264.7 cells assessed as inhibition of LPS-stimulated NF-kappaB p65 subunit accumulation in nucleus at 75 uM incubated for 2 hrs prior to LPS-challenge measured after 30 mins by Western blot analysis; type: cell-based
T1 sequence (whole entry): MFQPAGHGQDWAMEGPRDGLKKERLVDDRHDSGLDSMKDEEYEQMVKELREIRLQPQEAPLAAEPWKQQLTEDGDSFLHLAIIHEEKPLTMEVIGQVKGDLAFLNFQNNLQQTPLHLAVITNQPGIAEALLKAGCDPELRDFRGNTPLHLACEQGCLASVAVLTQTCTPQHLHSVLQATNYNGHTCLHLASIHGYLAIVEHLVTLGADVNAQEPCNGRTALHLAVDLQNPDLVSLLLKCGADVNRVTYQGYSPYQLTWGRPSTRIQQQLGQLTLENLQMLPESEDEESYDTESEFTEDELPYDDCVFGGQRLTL

[10] = molecular target: T1, NF-kappa-B inhibitor alpha (Mus musculus); assay: Inhibition of IkappaBalpha degradation in mouse LPS-induced RAW264.7 cells assessed as increase in cytosolic IkappaB level at 75 uM incubated for 2 hrs prior to LPS-challenge measured after 30 mins by Western blot analysis; type: cell-based
[11] = molecular target: T1, NF-kappa-B inhibitor alpha (Mus musculus); assay: Inhibition of IkappaB phosphorylation in mouse RAW264.7 cells assessed as decrease in LPS-induced phospho-IkappaBalpha level at 75 uM incubated for 2 hrs prior to LPS-challenge measured after 30 mins by Western blot analysis; type: cell-based
RAW264.7 [12] = assay: Antiinflammatory activity in mouse RAW264.7 cells assessed as inhibition of LPS-stimulated TNF-alpha mRNA expression at 75 uM incubated for 2 hrs prior to LPS-challenge measured after 8 hrs by quantitative real time PCR analysis; type: functional, cell-based
RAW264.7 [13] = assay: Antiinflammatory activity in mouse RAW264.7 cells assessed as inhibition of LPS-stimulated IL-1beta mRNA expression at 75 uM incubated for 2 hrs prior to LPS-challenge measured after 8 hrs by quantitative real time PCR analysis; type: functional, cell-based
RAW264.7 [14] = assay: Antiinflammatory activity in mouse RAW264.7 cells assessed as inhibition of LPS-stimulated IL-6 mRNA expression at 75 uM incubated for 2 hrs prior to LPS-challenge measured after 8 hrs by quantitative real time PCR analysis; type: functional, cell-based
RAW264.7 [15] = assay: Antiinflammatory activity in mouse RAW264.7 cells assessed as inhibition of LPS-induced iNOS protein expression at 75 uM incubated for 2 hrs prior to LPS-challenge measured after 24 hrs by Western blot analysis; type: functional, cell-based
Mus musculus [16] = assay: Antiinflammatory activity in ICR mouse assessed as reversal in LPS-induced weight loss at 20 mg/kg, ip administered for 5 days prior to LPS-challenge measured from day 9 to 11 relative to control; type: functional, organism-based; design: dose 20 mg/kg
Mus musculus [17] = assay: Antiinflammatory activity in ICR mouse assessed as reversal in LPS-induced weight loss at 20 mg/kg, ip administered for 5 days prior to LPS-challenge measured up to day 8 relative to control; type: functional, organism-based; design: dose 20 mg/kg
Mus musculus [18] = assay: Antiinflammatory activity in ICR mouse assessed as protection against LPS-induced sepsis at 20 mg/kg, ip administered for 5 days prior to LPS-challenge measured after 2 hrs; type: functional, organism-based; design: dose 20 mg/kg

Row | IC50 (RAW264.7 [3]) [µM] | SMILES | Activity (RAW264.7 [1]) | Activity (RAW264.7 [2]) | inhibition at 50 µM (RAW264.7 [4]) [%] | further results
1 | 3.08 | CC1(C)C(=O)C(C#N)=C[C@]2(C)C3=CC=C4[C@@H]5C[C@@](C)(C(=O)O)CC[C@]5(C)CC[C@@]4(C)[C@]3(C)CC[C@@H]12 | Non-toxic | Non-toxic | 98.4 | 
2 | > 50 | CNC(=O)[C@@]1(C)CC[C@]2(C)CC[C@]3(C)C(=CC=C4[C@@]5(C)C=C(O)C(=O)C(C)(C)[C@@H]5CC[C@]43C)[C@@H]2C1 | Non-toxic | Non-toxic | 27.6 | 
3 | > 50 | COC(=O)[C@@]1(C)CC[C@]2(C)CC[C@]3(C)C(=CC=C4[C@@]5(C)C=CC(=O)C(C)(C)[C@@H]5CC[C@]43C)[C@@H]2C1 | Non-toxic | Non-toxic | 5.5 | 
4 | 188 | CC1(C)[C@@H](O)CC[C@]2(C)[C@H]3C(=O)C=C4[C@@H]5C[C@@](C)(C(=O)O)CC[C@]5(C)CC[C@@]4(C)[C@]3(C)CC[C@@H]12 [ENOXOLONE] |  |  | 5.12 | Activity (Mus musculus [5]): Active; inhibition (RAW264.7 [6]): Active; inhibition (RAW264.7 [7]): Active; inhibition [8]: Active; inhibition [9]: Active; inhibition [10]: Active; inhibition [11]: Active; inhibition (RAW264.7 [12]): Active; inhibition (RAW264.7 [13]): Active; inhibition (RAW264.7 [14]): Active; inhibition (RAW264.7 [15]): Active
5 | 40.1 | CC1(C)C(=O)C=C[C@]2(C)C3=CC=C4[C@@H]5C[C@@](C)(C(N)=O)CC[C@]5(C)CC[C@@]4(C)[C@]3(C)CC[C@@H]12 | Non-toxic | Non-toxic | 32.5 | 
6 | 25.1 | CC1(C)C(=O)C(I)=C[C@]2(C)C3=CC=C4[C@@H]5C[C@@](C)(C#N)CC[C@]5(C)CC[C@@]4(C)[C@]3(C)CC[C@@H]12 | Non-toxic | Non-toxic | 52.9 | 
7 | 38.6 | COC(=O)[C@@]1(C)CC[C@]2(C)CC[C@]3(C)C(=CC=C4[C@@]5(C)C=C(O)C(=O)C(C)(C)[C@@H]5CC[C@]43C)[C@@H]2C1 | Non-toxic | Non-toxic | 33.3 | 

The next lines start with the compound.

Row | SMILES | IC50 (RAW264.7 [3]) [µM] | Activity (RAW264.7 [1]) | Activity (RAW264.7 [2]) | inhibition at 50 µM (RAW264.7 [4]) [%] | further results
8 | CC1(C)C(=O)C(I)=C[C@]2(C)C3=CC=C4[C@@H]5C[C@@](C)(C(=O)O)CC[C@]5(C)CC[C@@]4(C)[C@]3(C)CC[C@@H]12 | 20.1 | Non-toxic | Non-toxic | 60.3 | 
9 | CC1(C)C(=O)C=C[C@]2(C)C3=CC=C4[C@@H]5C[C@@](C)(C#N)CC[C@]5(C)CC[C@@]4(C)[C@]3(C)CC[C@@H]12 | 28.5 | Non-toxic | Non-toxic | 50.2 | 
10 | CC1(C)[C@@H](O)CC[C@]2(C)C3=CC=C4[C@@H]5C[C@@](C)(C(=O)O)CC[C@]5(C)CC[C@@]4(C)[C@]3(C)CC[C@@H]12 | > 50 | Non-toxic | Non-toxic | 15.6 | 
11 | CC1(C)C(=O)C=C[C@]2(C)C3=CC=C4[C@@H]5C[C@@](C)(C(=O)O)CC[C@]5(C)CC[C@@]4(C)[C@]3(C)CC[C@@H]12 | > 50 | Non-toxic | Non-toxic | 25.1 | 
12 | CC1(C)C(=O)C(O)=C[C@]2(C)C3=CC=C4[C@@H]5C[C@@](C)(C(N)=O)CC[C@]5(C)CC[C@@]4(C)[C@]3(C)CC[C@@H]12 | 35.1 | Non-toxic | Non-toxic | 37.5 | 
13 | CC1(C)C(=O)C(O)=C[C@]2(C)C3=CC=C4[C@@H]5C[C@@](C)(C(=O)O)CC[C@]5(C)CC[C@@]4(C)[C@]3(C)CC[C@@H]12 | 32.8 | Non-toxic | Non-toxic | 42.1 | 
14 | COC(=O)[C@@]1(C)CC[C@]2(C)CC[C@]3(C)C(=CC=C4[C@@]5(C)C=C(C#N)C(=O)C(C)(C)[C@@H]5CC[C@]43C)[C@@H]2C1 | 20 | Non-toxic | Non-toxic | 67.3 | 
15 | C[C@@H]1C[C@H]2[C@@H]3CCC4=CC(=O)C=C[C@]4(C)[C@@]3(F)[C@@H](O)C[C@]2(C)[C@@]1(O)C(=O)CO [DEXAMETHASONE] | 1.43 |  |  | 98.2 | Activity (Mus musculus [16]): Active; Activity (Mus musculus [17]): inactive; Activity (Mus musculus [18]): Active
16 | COC(=O)[C@@]1(C)CC[C@]2(C)CC[C@]3(C)C(=CC=C4[C@@]5(C)C=C(I)C(=O)C(C)(C)[C@@H]5CC[C@]43C)[C@@H]2C1 | > 50 | Non-toxic | Non-toxic | 15.3 | 
17 | CC1(C)C(=O)C(O)=C[C@]2(C)C3=CC=C4[C@@H]5C[C@@](C)(C(=O)n6ccnc6)CC[C@]5(C)CC[C@@]4(C)[C@]3(C)CC[C@@H]12 | 6.22 | Non-toxic | Non-toxic | 99 | 
18 | CC1(C)C(=O)CC[C@]2(C)C3=CC=C4[C@@H]5C[C@@](C)(C(=O)O)CC[C@]5(C)CC[C@@]4(C)[C@]3(C)CC[C@@H]12 | > 50 | Non-toxic | Non-toxic | 7.36 | 
